Measured values reported in patent US20240109942A1, “CHOLECYSTOKININ (CCK) SECRETION-PROMOTING PEPTIDE TARGETING CALCIUM-SENSING RECEPTOR, AND PREPARATION METHOD AND USE THEREOF” (University of Shanghai for Science and Technology, priority 2022, published 2024).
Where no end group is shown, it is not given here.

System: STC-1 cell
Assay: MTT cell proliferation and cytotoxicity assay on STC-1 cell
Assay type: cell-based
Conditions: absorbance 570 nm, peptide 0, 1, 2, 4 mmol/L, FIG. 2
Description: An STC-1 cell was cultured in a dulbecco's modified eagle medium (DMEM) containing 10% fetal bovine serum (FBS), 1% non-essential amino acids (NEAA), 100 U/mL penicillin and 0.1 mg/mL streptomycin. The cell was incubated in a cell incubator containing 5% CO2 at 37° C. and was subcultured by means of trypsin digestion when reaching 80%-90% density.
The effect of the active peptide of QGDVVALPA on the viability of the STC-1 cell was tested and evaluated by means of 3-(4,5-dimethylthiazol-2-yl)-2,5-diphenyltetrazolium bromide [3-(4,5-di methyl-2-thiazolyl)-2,5-di phenyl]-2H-tetrazolium bromide, methyl thiazolyl tetrazolium (MTT)) cell proliferation and cytotoxicity. MTT was added into the STC-1 cell treated in a 96-well plate, and a metabolically active cell cleaved yellow tetrazolium salt MTT into a purple formazan crystal. Formazan formed was dissolved, absorbance was measured with a microplate reader at a measurement wavelength of 570 nm, and results were expressed as a percentage of a control group.

“QGDVVALPA [QGDVVALPA, Gln-Gly-Asp-Val-Val-Ala-Leu-Pro-Ala]” was tested, and the “viability of the STC-1 cell compared with the control group” value was “not changed”.
